Results taken from ChEMBL document CHEMBL5724558, “Image-based profiling of drug vulnerabilities in CRC organoids” (2024).
Several values for one entry are separate records, joined by “and”; a condition that tells them apart may be missing. Identical values can stand only once.

Columns and labels:
Format in all cases: functional, Homo sapiens
Design in all cases: dose or concentration left out as unconfirmed
[1] = system: Colon cancer organoid; assay: (§1) Image-based profiling of donated chemical probes and chemogenomic kinase set in O06 CRC organoid. Image analysis is performed on the sum area metric, and the data were normalized to the DMSO control. After imaging the organoid viability is measured using the OneGloEX Luciferase Assay System. The normalized viability data and sum area are reported.
[2] = system: Colon cancer organoid; assay: as §1, with “O09” for “O06”
[3] = system: Colon cancer organoid; assay: as §1, with “O21” for “O06”

Structure (SMILES)	Cell Viability ([1]; Replication number 1)	Cell Viability ([1]; Replication number 2)	Cell Viability ([2]; Replication number 1)	Cell Viability ([2]; Replication number 2)	Cell Viability ([3]; Replication number 1)	Cell Viability ([3]; Replication number 2)
CN(C)c1ncnc(-c2ccc3nc(Nc4cc(CN5CCN(C(=O)CC(F)(F)F)CC5)ccn4)[nH]c3c2)c1Cl [BAY-440]	91.3612% and 98.3607%	93.5115% and 120.107%	134.702% and 130.21%	215.997% and 118.583%	107.586% and 105.951%	93.8566% and 87.7551%
Cc1noc([C@H]2C[C@@H](c3ccc(C(F)(F)F)cc3)CN(C(=O)N3CCS(=O)(=O)C3)C2)n1 [BAY-448]	117.281% and 106.792%	86.8627% and 94.2849%	144.748% and 117.786%	135.729% and 111.574%	88.3285% and 80.3363%	88.286% and 95.9184%
CC1=C(C#N)C(c2ccc3[nH]nc(C)c3c2)C(C#N)=C(C)N1 [BAY-474]	114.031% and 109.602%	118.528% and 111.578%	97.0801% and 99.3894%	77.9563% and 84.1183%	98.4176% and 90.2329%	78.5633% and 94.3878%
CC(=O)C1=C(C)N(c2cccc(C(F)(F)F)c2)C(=O)N[C@H]1c1ccc(C#N)nc1 [BAY-677]	100.678% and 123.419%	118.859% and 107.077%	129.525% and 109.185%	133.262% and 97.2618%	113.516% and 88.4864%	88.4804% and 82.1429%
CC(=O)C1=C(C)N(c2cccc(C(F)(F)F)c2)C(=O)N[C@@H]1c1ccc(C#N)nc1 [BAY-678]	116.42% and 104.215%	86.788% and 60.6455%	154.648% and 117.069%	95.0691% and 89.9598%	123.826% and 98.3829%	102.879% and 115.306%
Cc1nc(C2CCN(C(=O)c3ccc(OC(F)(F)F)cc3N)CC2)c2ncc(N3CCN(C)CC3)cc2n1 [BAY-693]	107.628% and 117.814%	129.663% and 123.258%	87.1033% and 97.7241%	88.4972% and 107.653%	120.305% and 115.678%	95.3265% and 86.6757%
O=C(O)[C@@H]1[C@@H](Cn2nnc3ccccc3c2=O)CC[C@H]1C(=O)c1ccc(OCCC2CCOCC2)cc1 [BAY-694]	110.156% and 94.3794%	134.213% and 84.5721%	120.527% and 70.2416%	178.043% and 104.564%	110.342% and 94.3079%	96.7199% and 85.7143%
O=C(NCc1ncc(C(F)(F)F)cc1Cl)c1ccc2c(c1)C1(CCS(=O)(=O)CC1)[C@@H](C1CC1)N2S(=O)(=O)c1ccc(F)cc1 [BAY-786]	93.4369% and 85.4801%	92.4233% and 87.6518%	144.169% and 104.407%	144.169% and 145.747%	89.1117% and 93.1436%	89.1705% and 87.7551%
Cc1c(NC(=O)c2cc(C(N)=O)nc3cc(F)ccc23)c(C(F)(F)F)nn1Cc1ccc(C#N)cc1 [BAY-876]	10.662% and 26.9321%	13.3809% and 14.2138%	36.4456% and 33.4484%	36.255% and 13.5816%	21.7392% and 19.9094%	22.1552% and 34.1837%
CN1CCN(c2cnc3c(C4CCN(C(=O)c5ccc(OC(F)(F)F)cc5N)CC4)ncnc3c2)CC1 [BAY-885]	84.7491% and 99.8381%	93.9717% and 91.062%	40.0205% and 84.5942%	66.5359% and 88.2236%	131.298% and 119.498%	99.2561% and 98.9123%
O=C(Nc1cnc(Oc2ccc(F)cc2)nc1)N1CCc2ncccc2[C@@H]1c1ccc(F)cc1 [BAY-899]	95.5159% and 118.785%	100.58% and 108.361%	90.6617% and 101.288%	105.766% and 101.705%	121.151% and 99.8545%	98.3369% and 80.5574%
CC1=C(C#N)C(c2ccc3c(c2)c(NC(=O)c2ccccc2C)nn3C)C(C#N)=C(C)N1 [BAY-974]	84.6822% and 93.2084%	111.085% and 112.763%	82.726% and 84.3377%	101.367% and 119.752%	90.5008% and 96.0543%	89.8417% and 122.959%
C[C@H](c1ccnc(Nc2nc3ccc(-c4cc(N(C)C)ncn4)cc3[nH]2)c1)N1CCN(C(=O)CC(F)(F)F)CC1 [BAY-985]	90.8191% and 114.52%	122.693% and 118.685%	71.2214% and 105.601%	101.014% and 89.9598%	79.4083% and 115.847%	85.0487% and 108.163%
NS(=O)(=O)c1cc(NC(=O)Cc2ccccc2)ccc1Oc1cccc(Cl)c1 [BAY-1797]	118.794% and 140.984%	77.9849% and 83.6245%	109.148% and 118.264%	102.589% and 110.989%	97.444% and 106.533%	100.538% and 94.898%
CCc1ccccc1C(=O)Nc1n[nH]c2c(C)c(F)c(C3C(C#N)=C(C)N(C)C(C)=C3C#N)cc12 [BAY-3827]	111.052% and 125.293%	118.254% and 98.7859%	62.8379% and 77.8869%	39.4727% and 62.2125%	104.538% and 100.129%	99.5085% and 100.51%
Cn1cc(Cl)c2c(Oc3c(F)cc(Nc4cc(Cl)nc(N)n4)cc3F)ccnc21 [BAY-4900]	133.628% and 127.773%	114.004% and 114.608%	73.6043% and 111.604%	79.5869% and 90.6027%	120.472% and 95.4893%	100.602% and 97.8926%
Cc1c(N2CCCC2)nc2ccc(Br)cc2c1C(=O)NC[C@H](CCC(=O)O)c1ccccc1Cl [BAY-6672]	80.703% and 111.012%	84.0903% and 90.3412%	62.7098% and 89.8462%	112.488% and 108.842%	101.261% and 132.048%	101.473% and 100.952%
CC(=O)N1CCC(c2ccc(C(=O)NC3=NCCN3)cc2C(F)(F)F)CC1 [BI 0054]	118.453% and 112.646%	54.9204% and 58.7504%	145.728% and 140.005%	185.058% and 111.866%	108.593% and 93.1436%	106.585% and 84.6939%
CN(C)C(=O)Cn1cc(-c2nc(C3(c4ccc(-c5cnc(N)nc5)cc4)CC3)no2)cn1 [BI 0153]	106.576% and 110.07%	80.0994% and 77.4652%	152.465% and 95.0889%	176.713% and 106.608%	115.747% and 91.3972%	95.3195% and 84.6939%
COc1ccc2c(O[C@@H]3C[C@H]4C(=O)N[C@]5(C(=O)O)CC5/C=C\CCCCC[C@H](NC(=O)OC5CCCC5)C(=O)N4C3)cc(-c3csc(NC(=O)C(C)C)n3)nc2c1C (stereo not given in full) [BI 1230]	145.195% and 153.864%	115.735% and 122.476%	106.493% and 128.298%	89.1059% and 82.6579%	91.3171% and 103.622%	114.827% and 120.408%
O=C(N[C@H]1CCCCC/C=C\C2C[C@@]2(C(=O)O)NC(=O)[C@@H]2C[C@@H](Oc3ccncc3)CN2C1=O)OC1CCCC1 (stereo not given in full) [BI 1675]	69.4015% and 71.6628%	66.5819% and 62.7776%	116.319% and 81.4707%	190.904% and 132.895%	85.4317% and 92.5614%	88.5187% and 94.3878%
CCOCCn1cc(C(=O)Nc2ccc(-n3nc(-c4cccnc4)cc3C(F)(F)F)cn2)ccc1=O [BI 1935]	106.067% and 119.906%	111.838% and 96.8907%	99.959% and 99.8673%	61.8115% and 83.5341%	115.071% and 97.8008%	110.735% and 98.9796%
C[C@H](NC(=O)c1cnc2n1[C@](C)(Cc1ccc(C#N)cc1)C(=O)N2c1cc(Cl)c(F)c(Cl)c1)C(=O)NC1(c2ccccn2)CC1 [BI 1950]	114.343% and 119.672%	141.649% and 119.396%	132.005% and 114.441%	125.066% and 107.777%	97.6765% and 100.712%	88.7319% and 89.7959%
CC(C)(C#Cc1ccc(NC(=O)COc2ccccc2C(=O)c2ccccc2)c(Cl)c1)C(=O)O [BI 2439]	94.1417% and 101.057%	69.7928% and 91.0899%	115.901% and 103.937%	114.023% and 92.0585%	94.7659% and 113.344%	112.811% and 119.578%
Cc1c(NC(=O)COc2ccc(Cl)cc2C(=O)c2cc(F)cc(C(F)(F)F)c2)ccc(C(=O)O)c1F [BI 2540]	58.8741% and 96.3504%	87.0416% and 104.656%	121.956% and 104.432%	133.179% and 113.341%	96.7046% and 115.044%	105.62% and 95.2087%
